Structures can show the parent of a compound that is named as a salt.
Biological target: Steroidogenic factor 1 (Homo sapiens, UniProt Q13285)
Assay: SF-1 inhibitors in Gal4 reporter counter-screen, dose response, counter-screen for RORA inhibitor project, cell-based, CHO-K1, Gal4-SF-1 LBD, luciferase luminescence (AID 611)
Conditions: not given

Sequence of Steroidogenic factor 1 (Q13285 whole entry, the tested form may be a part): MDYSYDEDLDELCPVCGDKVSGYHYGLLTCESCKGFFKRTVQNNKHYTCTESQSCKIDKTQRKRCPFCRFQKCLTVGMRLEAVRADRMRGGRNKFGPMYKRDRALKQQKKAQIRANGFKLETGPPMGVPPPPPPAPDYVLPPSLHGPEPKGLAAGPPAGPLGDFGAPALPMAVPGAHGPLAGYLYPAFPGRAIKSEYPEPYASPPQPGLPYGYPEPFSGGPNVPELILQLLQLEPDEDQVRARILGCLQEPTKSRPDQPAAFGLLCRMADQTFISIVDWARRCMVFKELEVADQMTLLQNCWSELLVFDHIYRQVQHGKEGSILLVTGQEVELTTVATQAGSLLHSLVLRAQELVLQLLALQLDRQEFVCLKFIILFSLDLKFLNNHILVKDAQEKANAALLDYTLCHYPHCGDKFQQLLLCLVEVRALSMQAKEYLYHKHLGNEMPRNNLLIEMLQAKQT

| SMILES | IC50 |
| --- | --- |
| Clc1ccc(-n2ncc3c(N4CCCCCC4)ncnc32)cc1 [4-(1-azepanyl)-1-(4-chlorophenyl)pyrazolo[3,4-d]pyrimidine] | 0.846 µM |
| COc1ccc(-c2cc(C(F)(F)F)nc(S(C)(=O)=O)n2)cc1OC [4-(3,4-dimethoxyphenyl)-2-methylsulfonyl-6-(trifluoromethyl)pyrimidine] | 7.15 µM |
| CCOc1ccc(-c2cc(CCCC(=O)NCCc3ccc(OC)c(OC)c3OC)no2)cc1 [4-(5-p-phenetylisoxazol-3-yl)-N-[2-(2,3,4-trimethoxyphenyl)ethyl]butyramide] | 6.37 µM |
| Cc1ccc2[nH]c3c(N4CCCCCC4)ncnc3c2c1 [4-(azepan-1-yl)-8-methyl-5H-pyrimido[5,4-b]indole] | 7.45 µM |
| Cc1cccc(-n2ncc3c(N4CCOCC4)ncnc32)c1 [4-[1-(3-methylphenyl)-4-pyrazolo[3,4-d]pyrimidinyl]morpholine] | > 3.67 µM |
| CCOC(=O)N1CCN(C(=O)C2CCN(c3ncnc4c3sc3cccc(F)c34)CC2)CC1 [4-[1-(9-fluorobenzothiopheno[3,2-d]pyrimidin-4-yl)isonipecotoyl]piperazine-1-carboxylic acid ethyl ester] | 6.51 µM |
| COc1ccc(OC)c(Nc2nc(-c3ccc(O)c(O)c3)cs2)c1 [4-[2-(2,5-Dimethoxy-phenylamino)-thiazol-4-yl]-benzene-1,2-diol] | 7.17 µM |
| COc1ccc(-c2noc(CCCC(=O)O)n2)cc1 [4-[3-(4-methoxyphenyl)-1,2,4-oxadiazol-5-yl]butanoic acid] | 2.72 µM |
| Fc1ccc2[nH]c3c(N4CCN(Cc5ccc6c(c5)OCO6)CC4)ncnc3c2c1 [4-[4-(1,3-benzodioxol-5-ylmethyl)-1-piperazinyl]-8-fluoro-5H-pyrimido[5,4-b]indole] | 3.38 µM |
| COc1ccc2c(c1)[nH]c1c(N3CCN(Cc4ccc5c(c4)OCO5)CC3)ncnc12 [4-[4-(1,3-benzodioxol-5-ylmethyl)piperazin-1-yl]-7-methoxy-5H-pyrimido[5,4-b]indole] | 7.25 µM |
| COc1ccccc1-c1cc(C(F)(F)F)nc(S(=O)(=O)CCCC(=O)NC(C)C)n1 [4-[4-(2-methoxyphenyl)-6-(trifluoromethyl)pyrimidin-2-yl]sulfonyl-N-propan-2-yl-butanamide] | 9.35 µM |
| COc1cccc(N2CCN(c3ncnc4c3[nH]c3ccccc34)CC2C)c1 (stereo not drawn) [4-[4-(3-methoxyphenyl)-3-methyl-1-piperazinyl]-5H-pyrimido[5,4-b]indole] | 4.85 µM |
| Clc1ccc(OCCN2CCN(c3ncnc4sccc34)CC2)cc1 [4-[4-[2-(4-chloranylphenoxy)ethyl]piperazin-1-yl]thieno[2,3-d]pyrimidine] | 1.44 µM |
| CCOc1ccc(-c2cc(CCCC(=O)NCCCOC)no2)cc1 [4-[5-(4-ethoxyphenyl)-1,2-oxazol-3-yl]-N-(3-methoxypropyl)butanamide] | 2.64 µM |
| CCOC(=O)N1CCC(NC(=O)C2CCCN(Cc3nc(-c4cccc(Cl)c4)oc3C)C2)CC1 (stereo not drawn) [4-[[1-[[2-(3-chlorophenyl)-5-methyl-oxazol-4-yl]methyl]nipecotoyl]amino]piperidine-1-carboxylic acid ethyl ester] | 6.81 µM |
| CCN(CC)c1ccc2cc(NC(=O)CCC(=O)O)c(=O)oc2c1 [4-[[7-(diethylamino)-2-keto-chromen-3-yl]amino]-4-keto-butyric acid] | 6.07 µM |
| CC(=O)c1c(C)[nH]c(C(=O)OCCCCN2C(=O)c3ccccc3C2=O)c1C [4-acetyl-3,5-dimethyl-1H-pyrrole-2-carboxylic acid 4-(1,3-dioxo-2-isoindolyl)butyl ester] | 5.04 µM |
| CCCCOc1ncnc2c1[nH]c1ccc(F)cc12 [4-butoxy-8-fluoranyl-5H-pyrimido[5,4-b]indole] | 4.2 µM |
| COc1ccc(C(=O)Nn2c(SCC(=O)NCC3CCCO3)nc3ccccc3c2=O)cc1 (stereo not drawn) [4-methoxy-N-[4-oxidanylidene-2-[2-oxidanylidene-2-(oxolan-2-ylmethylamino)ethyl]sulfanyl-quinazolin-3-yl]benzamide] | 4.51 µM |
| CCOc1ccc(OCc2cccc(C(=O)N3CCOCC3)c2)cc1 [4-{3-[(4-ethoxyphenoxy)methyl]benzoyl}morpholine] | 4.35 µM |
| O=c1cc(-c2c(F)c(F)c(F)c(F)c2F)oc2c(F)c(F)c(F)c(F)c12 [5,6,7,8-tetrafluoro-2-(2,3,4,5,6-pentafluorophenyl)-1-benzopyran-4-one] | 4.81 µM |
| O=C(NC1CC1)c1ccc(-c2nc3ccccc3s2)s1 [5-(1,3-benzothiazol-2-yl)-N-cyclopropyl-2-thiophenecarboxamide] | 9.53 µM |
| Cc1oc(-c2ccc3c(c2)OCCO3)cc1C(=O)O [5-(2,3-dihydro-1,4-benzodioxin-6-yl)-2-methyl-3-furancarboxylic acid] | 3.06 µM |
| COc1ccc(-c2nc(-c3ccccc3)no2)c(OC)c1 [5-(2,4-dimethoxyphenyl)-3-phenyl-1,2,4-oxadiazole] | 2.82 µM |
| Cc1ccc(-c2nc(-c3ccccn3)no2)cc1Cl [5-(3-chloranyl-4-methyl-phenyl)-3-pyridin-2-yl-1,2,4-oxadiazole] | 2.22 µM |
| Fc1ccc(-c2nnc(NC3=NCCCCC3)o2)cc1 [5-(4-fluorophenyl)-N-(3,4,5,6-tetrahydro-2H-azepin-7-yl)-1,3,4-oxadiazol-2-amine] | > 3.67 µM |
| Oc1c(CN2CCOCC2)cc(COCc2ccccc2)c2cccnc12 [5-(benzoxymethyl)-7-(morpholinomethyl)quinolin-8-ol] | 5.97 µM |
| Oc1c(CN2CCCCC2)cc(COCc2ccccc2)c2cccnc12 [5-(benzoxymethyl)-7-(piperidinomethyl)quinolin-8-ol] | 7.58 µM |
| NCCCCCc1nnc(SCc2ccccc2Cl)o1 [5-[5-[(2-chlorobenzyl)thio]-1,3,4-oxadiazol-2-yl]pentylamine;hydrochloride] | > 99 µM |
| Oc1c(CN2CCN(c3ccccn3)CC2)cc(Cl)c2cccnc12 [5-chloranyl-7-[(4-pyridin-2-ylpiperazin-1-yl)methyl]quinolin-8-ol] | 6.65 µM |

Continued, values first:

| IC50 | SMILES |
| --- | --- |
| 8.98 µM | Cc1ccnc(NC(=O)CCCOc2cc(=O)n(C)c3ccccc23)c1 [4-(1-methyl-2-oxidanylidene-quinolin-4-yl)oxy-N-(4-methylpyridin-2-yl)butanamide] |
| > 3.67 µM | COC(=O)c1ccc(-c2nc(-c3cccs3)no2)cc1 [4-(3-thiophen-2-yl-1,2,4-oxadiazol-5-yl)benzoic acid methyl ester] |
| 8.38 µM | CC1CCCCC1NS(=O)(=O)c1ccc(S(=O)(=O)NCc2ccncc2)cc1 (stereo not drawn) [4-N-(2-methylcyclohexyl)-1-N-(pyridin-4-ylmethyl)benzene-1,4-disulfonamide] |
| 9.51 µM | CCN(C1CCCCC1)S(=O)(=O)c1ccc(S(=O)(=O)NCc2ccncc2)cc1 [4-N-cyclohexyl-4-N-ethyl-1-N-(pyridin-4-ylmethyl)benzene-1,4-disulfonamide] |
| 3.24 µM | COc1ccccc1-c1nnc2sc(-c3ccc(N(C)C)cc3)nn12 [4-[3-(2-methoxyphenyl)-[1,2,4]triazolo[3,4-b][1,3,4]thiadiazol-6-yl]-N,N-dimethyl-aniline] |
| 8.03 µM | Cc1ccc(-c2noc(CCCC(=O)Nc3cccnc3)n2)cc1 [4-[3-(4-methylphenyl)-1,2,4-oxadiazol-5-yl]-N-(3-pyridinyl)butanamide] |
| > 11 µM | CCOc1ccc(-c2cc(CCCC(=O)NCc3ccco3)no2)cc1 [4-[5-(4-ethoxyphenyl)-1,2-oxazol-3-yl]-N-(furan-2-ylmethyl)butanamide] |
| 0.675 µM | COc1cc(CN=O)ccc1OCc1ccc(C(=O)O)cc1 [4-[[4-(hydroximinomethyl)-2-methoxy-phenoxy]methyl]benzoic acid] |
| > 11 µM | Cc1ccccc1NC(=O)c1cnc2ccccn2c1=O [4-keto-N-(o-tolyl)pyrido[1,2-a]pyrimidine-3-carboxamide] |
| > 99.1 µM | Cc1ccc(-c2cnc(NC(=O)CCC(=O)N3CCCCC3)n2C)cc1 [4-keto-N-[1-methyl-5-(p-tolyl)imidazol-2-yl]-4-piperidino-butyramide] |
| 3.29 µM | COc1ccc(C(=O)NC(=O)Nc2cc(C)ccn2)cc1 [4-methoxy-N-[(4-methyl-2-pyridyl)carbamoyl]benzamide] |
| 3.34 µM | Cc1ccc(-c2nc(-c3ccccc3)no2)c(Cl)c1 [5-(2-chloranyl-4-methyl-phenyl)-3-phenyl-1,2,4-oxadiazole] |
| > 11 µM | CCOc1ccc(OCc2ccc(C(=O)OCc3ccccn3)o2)cc1 [5-(4-Ethoxy-phenoxymethyl)-furan-2-carboxylic acid pyridin-2-ylmethyl ester] |
| 7.09 µM | COc1ccccc1-n1nnnc1S(=O)(=O)Cc1ccc(Cl)cc1 [5-(4-chlorobenzyl)sulfonyl-1-(2-methoxyphenyl)tetrazole] |
| 1.05 µM | Cc1ccc(-c2nc(-c3ccccn3)no2)cc1 [5-(4-methylphenyl)-3-(2-pyridinyl)-1,2,4-oxadiazole] |
| > 3.67 µM | Cc1ccc(-c2nnc(Nc3ccccc3)o2)cc1 [5-(4-methylphenyl)-N-phenyl-1,3,4-oxadiazol-2-amine] |
| 3.74 µM | O=S(=O)(NCc1ccncc1)c1ccc(Br)s1 [5-bromanyl-N-(pyridin-4-ylmethyl)thiophene-2-sulfonamide] |

Same assay, conditions: inactive by the depositor's call

| SMILES | IC50 |
| --- | --- |
| COc1ccccc1-c1cc(C(F)(F)F)nc(S(=O)(=O)CCCC(=O)Nc2cc(C)on2)n1 [4-[4-(2-methoxyphenyl)-6-(trifluoromethyl)pyrimidin-2-yl]sulfonyl-N-(5-methyl-1,2-oxazol-3-yl)butanamide] | 13.2 µM |
| Cc1ccc2nc(C(F)(F)F)c(C#N)c(N)c2c1 [4-amino-6-methyl-2-(trifluoromethyl)-3-quinolinecarbonitrile] | 11.6 µM |

Second part, the compound after the results:

| IC50 | SMILES |
| --- | --- |
| 11.1 µM | Cc1nc2sccn2c1-c1csc(NCc2ccccc2)n1 [4-(6-methyl-5-imidazo[2,1-b]thiazolyl)-N-(phenylmethyl)-2-thiazolamine] |
| 24.4 µM | CCCCN(CCCC)S(=O)(=O)c1ccc(C(=O)Nc2nnc(CSC)o2)cc1 [4-(dibutylsulfamoyl)-N-[5-(methylsulfanylmethyl)-1,3,4-oxadiazol-2-yl]benzamide] |
| 11.6 µM | Cc1ccc(S(=O)(=O)NCc2ccncc2)cc1 [4-Methyl-N-pyridin-4-ylmethyl-benzenesulfonamide] |
| 12.4 µM | Cc1ccc(S(=O)(=O)Nc2ccc3ncccc3c2)cc1 [4-methyl-N-(6-quinolinyl)benzenesulfonamide] |
